Assay results taken from US12077503B2, “Substituted cyclic amides and their use as herbicides” (FMC CORPORATION, priority 2015, dated 2024).

Experiments:
Type in all cases: in vivo
[1] = test system: sedge, umbrella (small-flower umbrella sedge, Cyperus difformis); experiment: Test B flooded paddy test; details: Flood, 250 g ai/ha, scale of 0 to 100 where 0 is no effect and 100 is complete control
How it was run: (§1)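 Percent control, visually estimated after 13–15 d in the greenhouse on a 0–100 basis, compares treated pots with untreated ones; compound was put into paddy water 3 cm above the soil when plants had two leaves.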

[2] = test system: barnyardgrass (Echinochloa crus-galli); experiment: Test B flooded paddy test; details: Flood, 250 g ai/ha
How it was run: as §1

[3] = test system: ducksalad (Heteranthera limosa); experiment: Test B flooded paddy test; details: Flood, 250 g ai/ha
How it was run: as §1

rice (Oryra sativa) = experiment: Test B flooded paddy test; details: Flood, 250 g ai/ha
How it was run: as §1

Kochia (Kochia scoparia) [4] = experiment: Test A preemergence
How it was run: (§2)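 Each rating is a visual injury score from 0 to 100 given about 10 d after treatment, judged against untreated controls kept alongside in the greenhouse. In loam soil–sand blend, seeds got a preemergence directed soil spray, while postemergence plants were 2 to 10 cm tall at spraying.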

[5] = test system: ryegrass, Italian (Italian ryegrass, Lolium multiflorum); experiment: Test A preemergence
How it was run: as §2

[6] = test system: barnyardgrass (Echinochloa crus-galli); experiment: Test A preemergence
How it was run: as §2

[7] = test system: pigweed (Amaranthus retroflexus); experiment: Test A preemergence
[8] = test system: ragweed (common ragweed, Ambrosia elatior); experiment: Test A preemergence
How it was run: as §2

[9] = test system: giant foxtail (Setaria faberii); experiment: Test A preemergence
How it was run: as §2

Kochia (Kochia scoparia) [10] = experiment: Test A postemergence; details: for Plant response rating, Kochia: postemergence, 0 to 100 scale (0 no effect, 100 complete control)
How it was run: as §2

[11] = test system: ryegrass, Italian (Italian ryegrass, Lolium multiflorum); experiment: Test A postemergence; details: for Plant response rating, Ryegrass, Italian: postemergence, 0 to 100 scale (0 no effect, 100 complete control)
How it was run: as §2

[12] = test system: barnyardgrass (Echinochloa crus-galli); experiment: Test A postemergence; details: for Plant response rating, Barnyardgrass: postemergence, 0 to 100 scale (0 no effect, 100 complete control)
How it was run: as §2

[13] = test system: Galium (catchweed bedstraw, Galium aparine); experiment: Test A postemergence; details: for Plant response rating, Galium: postemergence, 0 to 100 scale (0 no effect, 100 complete control)
How it was run: as §2

[14] = test system: blackgrass (Alopecurus myosuroides); experiment: Test A postemergence; details: for Plant response rating, Blackgrass: postemergence, 0 to 100 scale (0 no effect, 100 complete control)
How it was run: as §2

[15] = test system: pigweed (Amaranthus retroflexus); experiment: Test A postemergence; details: for Plant response rating, Pigweed: postemergence, 0 to 100 scale (0 no effect, 100 complete control)
How it was run: as §2

[16] = test system: ragweed (common ragweed, Ambrosia elatior); experiment: Test A postemergence; details: for Plant response rating, Ragweed: postemergence, 0 to 100 scale (0 no effect, 100 complete control)
How it was run: as §2

corn (Zea mays) = experiment: Test A postemergence; details: for Plant response rating, Corn: postemergence, 0 to 100 scale (0 no effect, 100 complete control)
How it was run: as §2

[17] = test system: giant foxtail (Setaria faberii); experiment: Test A postemergence; details: for Plant response rating, Foxtail, Giant: postemergence, 0 to 100 scale (0 no effect, 100 complete control)
How it was run: as §2

[18] = test system: wheat (Triticum aestivum); experiment: Test A postemergence; details: for Plant response rating, Wheat: postemergence, 0 to 100 scale (0 no effect, 100 complete control)
How it was run: as §2

[19] = 0 to 100 scale where 0 is no effect and 100 is complete control, 13 to 15 d
[20] = 125 g ai/ha, Preemergence, visual injury after approximately 10 d, 0 to 100 scale where 0 is no effect and 100 is complete control
[21] = 500 g ai/ha, preemergence, 0 to 100 scale, 0 = no effect, 100 = complete control
[22] = 125 g ai/ha, preemergence, visual rating after approx. 10 d, 0 to 100 scale where 0 is no effect and 100 is complete control
[23] = 125 g ai/ha, visual injury after approximately 10 d
[24] = 500 g ai/ha, visual injury, approx. 10 d
[25] = 125 g ai/ha, visual rating after approx. 10 d

CN1CC(c2ccc(C(C)(F)F)cc2)C(C(=O)Nc2ccccc2F)C1=O (centres unmarked) [Compound 691]
Sedge, Umbrella plant response rating [1]: 0
Plant response rating, Barnyardgrass [2, 19]: 70
Plant response rating, Ducksalad [3, 19]: 95
Plant response rating, Rice (rice (Oryra sativa); [19]): 25
Plant response rating, Kochia (Kochia (Kochia scoparia) [4]; [20]): 80
Plant response rating, Kochia (Kochia (Kochia scoparia) [4]; [21]): 90
Plant response rating, Ryegrass, Italian [5, 22]: 50
Plant response rating, Ryegrass, Italian [5, 21]: 60
Plant response rating, Barnyardgrass [6, 20]: 90
Plant response rating, Barnyardgrass [6, 21]: 90
Plant response rating, Pigweed [7, 22]: 70
Plant response rating, Pigweed [7, 21]: 80
Plant response rating, Ragweed [8, 22]: 60
Plant response rating, Ragweed [8, 21]: 90
Plant response rating, Foxtail, Giant [9, 20]: 90
Plant response rating, Foxtail, Giant [9, 21]: 90
Plant response rating, Kochia (Kochia (Kochia scoparia) [10]; [23]): 70
Plant response rating, Kochia (Kochia (Kochia scoparia) [10]; [24]): 80
Plant response rating, Ryegrass, Italian [11, 23]: 50
Plant response rating, Ryegrass, Italian [11, 24]: 60
Plant response rating, Barnyardgrass [12, 25]: 80
Plant response rating, Barnyardgrass [12, 24]: 80
Plant response rating, Galium [13, 23]: 70
Plant response rating, Galium [13, 24]: 70
Plant response rating, Blackgrass [14, 25]: 50
Plant response rating, Blackgrass [14, 24]: 60
Plant response rating, Pigweed [15, 23]: 40
Plant response rating, Pigweed [15, 24]: 70
Plant response rating, Ragweed [16, 23]: 50
Plant response rating, Ragweed [16, 24]: 60
Plant response rating, Corn (corn (Zea mays); [23]): 60
Plant response rating, Corn (corn (Zea mays); [24]): 90
Plant response rating, Foxtail, Giant [17, 23]: 80
Plant response rating, Foxtail, Giant [17, 24]: 80
Plant response rating, Wheat [18, 23]: 50
Plant response rating, Wheat [18, 24]: 60

CN1C[C@H](c2ccc(C(F)(F)F)cc2)[C@@H](C(=O)Nc2ccccc2Br)C1=O [Compound 943]
pest or weed control at 250 g/ha ([1]; Cyperus difformis, read-out: Sedge, Umbrella plant response rating): 0%
pest or weed control at 250 g/ha ([2]; Echinochloa crus-galli, scale of 0 to 100 where 0 is no effect and 100 is complete control, read-out: Barnyardgrass plant response rating): 0%
pest or weed control at 250 g/ha ([3]; Heteranthera limosa, scale of 0 to 100 where 0 is no effect and 100 is complete control, read-out: Ducksalad plant response rating): 50%
pest or weed control at 250 g/ha (rice (Oryra sativa); Oryza sativa, scale of 0 to 100 where 0 is no effect and 100 is complete control, read-out: Rice plant response rating): 0%
pest or weed control at 125 g/ha (Kochia (Kochia scoparia) [4]; Bassia scoparia, pre-emergence, 240 h, 125 g ai/ha, Preemergence, visual injury rating after approximately 10 d, read-out: Kochia plant response rating (0 to 100 scale, 0 is no effect, 100 is complete control)): 70%
pest or weed control at 500 g/ha (Kochia (Kochia scoparia) [4]; Bassia scoparia, pre-emergence, 240 h, 500 g ai/ha, preemergence, visual injury rating about 10 d after treatment, 0 to 100 scale (0 no effect, 100 complete control), read-out: Kochia plant response rating): 80%
pest or weed control at 125 g/ha ([5]; Lolium multiflorum, pre-emergence, 240 h, 125 g ai/ha, Preemergence, visual injury rating after approximately 10 d, read-out: Ryegrass, Italian plant response rating (0 to 100 scale, 0 is no effect, 100 is complete control)): 0%
pest or weed control at 500 g/ha ([5]; Lolium multiflorum, pre-emergence, 240 h, 500 g ai/ha, preemergence, visual injury rating about 10 d after treatment, 0 to 100 scale (0 no effect, 100 complete control), read-out: Ryegrass, Italian plant response rating): 50%
pest or weed control at 125 g/ha ([6]; Echinochloa crus-galli, pre-emergence, 240 h, 125 g ai/ha, Preemergence, visual injury rating after approximately 10 d, read-out: Barnyardgrass plant response rating (0 to 100 scale, 0 is no effect, 100 is complete control)): 90%
pest or weed control at 500 g/ha ([6]; Echinochloa crus-galli, pre-emergence, 240 h, 500 g ai/ha, preemergence, visual injury rating about 10 d after treatment, 0 to 100 scale (0 no effect, 100 complete control), read-out: Barnyardgrass plant response rating): 90%
pest or weed control at 125 g/ha ([7]; Amaranthus retroflexus, pre-emergence, 240 h, 125 g ai/ha, Preemergence, visual injury rating after approximately 10 d, read-out: Pigweed plant response rating (0 to 100 scale, 0 is no effect, 100 is complete control)): 40%
pest or weed control at 500 g/ha ([7]; Amaranthus retroflexus, pre-emergence, 240 h, 500 g ai/ha, preemergence, visual injury rating about 10 d after treatment, 0 to 100 scale (0 no effect, 100 complete control), read-out: Pigweed plant response rating): 50%
pest or weed control at 125 g/ha ([8]; Ambrosia artemisiifolia, pre-emergence, 240 h, 125 g ai/ha, Preemergence, visual injury rating after approximately 10 d, read-out: Ragweed plant response rating (0 to 100 scale, 0 is no effect, 100 is complete control)): 0%
pest or weed control at 500 g/ha ([8]; Ambrosia artemisiifolia, pre-emergence, 240 h, 500 g ai/ha, preemergence, visual injury rating about 10 d after treatment, 0 to 100 scale (0 no effect, 100 complete control), read-out: Ragweed plant response rating): 30%
pest or weed control at 125 g/ha ([9]; Setaria faberi, pre-emergence, 240 h, 125 g ai/ha, Preemergence, visual injury rating after approximately 10 d, read-out: Foxtail, Giant plant response rating (0 to 100 scale, 0 is no effect, 100 is complete control)): 90%
pest or weed control at 500 g/ha ([9]; Setaria faberi, pre-emergence, 240 h, 500 g ai/ha, preemergence, visual injury rating about 10 d after treatment, 0 to 100 scale (0 no effect, 100 complete control), read-out: Foxtail, Giant plant response rating): 90%
pest or weed control at 125 g/ha (Kochia (Kochia scoparia) [10]; Bassia scoparia, post-emergence, 240 h, 125 g ai/ha, Postemergence, visual injury after approximately 10 d, 0 to 100 scale where 0 is no effect and 100 is complete control, read-out: Plant response rating, Kochia): 30%
pest or weed control at 125 g/ha ([11]; Lolium multiflorum, post-emergence, 240 h, 125 g ai/ha, Postemergence, visual injury after approximately 10 d, 0 to 100 scale where 0 is no effect and 100 is complete control, read-out: Plant response rating, Ryegrass, Italian): 0%
pest or weed control at 125 g/ha ([12]; Echinochloa crus-galli, post-emergence, 240 h, 125 g ai/ha, Postemergence, visual injury after approximately 10 d, 0 to 100 scale where 0 is no effect and 100 is complete control, read-out: Plant response rating, Barnyardgrass): 70%
pest or weed control at 125 g/ha ([13]; Galium, post-emergence, 240 h, 125 g ai/ha, Postemergence, visual injury after approximately 10 d, 0 to 100 scale where 0 is no effect and 100 is complete control, read-out: Plant response rating, Galium): 70%
pest or weed control at 125 g/ha ([14]; Alopecurus myosuroides, post-emergence, 240 h, 125 g ai/ha, Postemergence, visual injury after approximately 10 d, 0 to 100 scale where 0 is no effect and 100 is complete control, read-out: Plant response rating, Blackgrass): 40%
pest or weed control at 125 g/ha ([15]; Amaranthus retroflexus, post-emergence, 240 h, 125 g ai/ha, Postemergence, visual injury after approximately 10 d, 0 to 100 scale where 0 is no effect and 100 is complete control, read-out: Plant response rating, Pigweed): 40%
pest or weed control at 125 g/ha ([16]; Ambrosia artemisiifolia, post-emergence, 240 h, 125 g ai/ha, Postemergence, visual injury after approximately 10 d, 0 to 100 scale where 0 is no effect and 100 is complete control, read-out: Plant response rating, Ragweed): 0%
Corn plant response rating (crop injury, 0 = no effect, 100 = complete kill) at 125 g/ha (corn (Zea mays); Zea mays, post-emergence, 240 h, 125 g ai/ha, Postemergence, visual injury after approximately 10 d, 0 to 100 scale where 0 is no effect and 100 is complete control): 20%
pest or weed control at 125 g/ha ([17]; Setaria faberi, post-emergence, 240 h, 125 g ai/ha, Postemergence, visual injury after approximately 10 d, 0 to 100 scale where 0 is no effect and 100 is complete control, read-out: Plant response rating, Foxtail, Giant): 90%
plant injury at 125 g/ha ([18]; Triticum aestivum, post-emergence, 240 h, 125 g ai/ha, Postemergence, visual injury after approximately 10 d, 0 to 100 scale where 0 is no effect and 100 is complete control, read-out: Plant response rating, Wheat): 0%
